*1 amine or outer side, *2 acyl side, *3 side chain or, on linkers, in order; H or OH if unused. Where a SMILES comes first, the peptide text is derived from it. Side-chain parts run from the residue outwards. [ ]: non-standard residue; d: D form. The star is where a group is joined. Ethylenediamine = C(CN[*:2])N[*:1]; Hyp = O=C(O)[C@@H]1C[C@@H](O)CN1; Phg = N[C@H](C(=O)O)c1ccccc1; CO = O=C([*:1])[*:2]; Bn = c1ccc(C*)cc1
Key:
SSTR3-tGFP = SSTR3-tGFP (Homo sapiens, UniProt P32745); assay: Internalization of SSTR3 in U2OS transfected cells; type: cell-based; parameters: expressed in transfected cells; host or cells: U2OS
Sequence of SSTR3-tGFP (P32745 whole entry): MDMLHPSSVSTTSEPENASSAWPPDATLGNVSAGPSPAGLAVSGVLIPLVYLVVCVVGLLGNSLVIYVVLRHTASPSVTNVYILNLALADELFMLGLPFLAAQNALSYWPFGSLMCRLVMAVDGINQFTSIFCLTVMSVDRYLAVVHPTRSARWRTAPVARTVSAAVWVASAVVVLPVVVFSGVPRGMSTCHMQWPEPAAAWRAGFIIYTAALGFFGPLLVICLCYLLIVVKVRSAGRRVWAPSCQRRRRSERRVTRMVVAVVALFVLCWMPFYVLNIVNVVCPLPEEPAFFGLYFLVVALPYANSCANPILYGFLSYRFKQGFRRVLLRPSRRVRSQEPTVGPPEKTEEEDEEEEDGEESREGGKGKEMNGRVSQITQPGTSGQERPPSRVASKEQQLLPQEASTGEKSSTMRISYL
Excerpt: (§1) HEK293 cells transfected with human SSTRs, and U20S cells transfected with human GFP-tagged receptors (SSTR2-tGFP, SSTR3-tGFP, SSTR5-tGFP).

SSTR2 [1] = biological target: T1, SSTR2 (Homo sapiens, UniProt P30874); assay: SSTR2 phosphorylation in HEK293 transfected cells (phosphosite-specific antibodies); type: cell-based; parameters: expressed in transfected cells; conditions: 10 or 1 μM, 10 min at 37° C.
T1 sequence (P30874 whole entry): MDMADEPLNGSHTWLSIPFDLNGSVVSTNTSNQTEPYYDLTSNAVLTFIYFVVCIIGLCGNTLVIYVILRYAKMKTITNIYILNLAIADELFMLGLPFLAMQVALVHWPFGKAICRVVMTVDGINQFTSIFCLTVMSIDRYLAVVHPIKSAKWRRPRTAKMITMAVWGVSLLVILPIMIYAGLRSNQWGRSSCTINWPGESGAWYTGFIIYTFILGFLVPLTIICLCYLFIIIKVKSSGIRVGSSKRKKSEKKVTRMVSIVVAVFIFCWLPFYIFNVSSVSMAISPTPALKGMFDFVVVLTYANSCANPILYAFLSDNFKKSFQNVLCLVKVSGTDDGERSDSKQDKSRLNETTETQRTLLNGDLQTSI
Procedure: (A) Schematic representation of the human SSTR2 receptor indicating all potential phosphate acceptor sites within the carboxyl-terminal tail. Epitopes of the phosphosite-specific antibodies are marked (-P). […] The levels of phosphorylated SSTR2 receptor were then determined using the phosphosite-specific anti-pS341/pS343, pT353/T354, pT356/T359 antibodies. […] Blots shown are representative of three independent experiments. The positions of molecular mass markers are indicated on the left (in kDa).

SSTR2-tGFP = SSTR2-tGFP (Homo sapiens, UniProt P30874); assay: Internalization of SSTR2 in U2OS transfected cells; type: cell-based; parameters: expressed in transfected cells; host or cells: U2OS
Sequence of SSTR2-tGFP (P30874 whole entry): as above
Excerpt: as §1

NT-3 cell line spheroids = assay: Cytotoxic activity on NT-3 cell line spheroids; type: cell-based, human; conditions: 2.56 μM, 18 days
Procedure: NT-3 well-differentiated pancreatic neuroendocrine (PanNET) cell line (32) is an in-vitro model for pancreatic tumours.
Said cells were cultured in RPMI 1640 Medium GlutaMAX™ with 10% FBS, 1% Penicillin/Streptomycin, 20ng/ml EGF (AF-100-15, Peprotech), 10 ng/ml FGF (100-18B, Peprotech).
3D spheroids were generated by seeding 2000 cells/well in a 96-well ULA plate (Corning). Four replicates for each condition were seeded.
The spheroid formation required 4 days before starting the treatment.
The treatment was repeated every 3 days by replacing 50% of the medium (to avoid spheroid removal) with new medium containing 2× desired drug concentration.
Spheroid morphology was monitored every day during the treatment and pictures were taken on day 0, 4, 7, 11, 14, 18. Day 0 corresponds to the first day of treatment. Pictures were taken from the same well every time point.

[2] = biological target: wild-type hSSTR5 stably expressed in HEK293 cells (human) (UniProt P35346)
[3] = biological target: wild-type hSSTR3 stably expressed in HEK293 cells (human) (UniProt P32745)
[4] = biological target: wild-type hSSTR2 stably expressed in HEK293 cells (human) (UniProt P30874)
SSTR3 [5] = biological target: T2, SSTR3 (Homo sapiens, UniProt P32745); assay: SSTR3 phosphorylation in HEK293 transfected cells (phosphosite-specific antibodies); type: cell-based; parameters: expressed in transfected cells; conditions: 10^−12 to 10^−5 M, 10 min at 37° C.
T2 sequence (P32745 whole entry): as the sequence (P32745 whole entry) above
Procedure: The levels of phosphorylated SST3 receptor were then determined using the phosphosite-specific anti-pS337/pT341 or anti-pT348.
(§2) Finally, the SSTR5 pT333 phosphosite was only partially affected by all tested compounds, with Pasireotide showing the most pronounced effect (FIG. 9B, C).

SSTR5 [6] = biological target: T3, SSTR5 (Homo sapiens, UniProt P35346); assay: SSTR5 phosphorylation in HEK293 transfected cells (anti-pT333); type: cell-based; parameters: expressed in transfected cells; conditions: 10 min at 37° C.
T3 sequence (P35346 whole entry): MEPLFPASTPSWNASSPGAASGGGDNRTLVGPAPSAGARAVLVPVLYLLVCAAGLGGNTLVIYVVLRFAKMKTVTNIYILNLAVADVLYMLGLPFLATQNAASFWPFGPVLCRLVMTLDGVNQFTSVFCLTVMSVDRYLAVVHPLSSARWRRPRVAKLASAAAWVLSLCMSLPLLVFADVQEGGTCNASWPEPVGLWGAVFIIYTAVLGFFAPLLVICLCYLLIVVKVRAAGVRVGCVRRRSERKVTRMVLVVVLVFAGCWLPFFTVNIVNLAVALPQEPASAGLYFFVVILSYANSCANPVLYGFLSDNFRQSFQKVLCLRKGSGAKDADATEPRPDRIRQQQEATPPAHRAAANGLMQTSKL
Excerpt: FIG. 9—Agonist-selective SSTR5 phosphorylation in HEK293 transfected cells. (A) Schematic representation of the human SSTR5 receptor indicating all potential phosphate acceptor site within the carboxyl-terminal tail. Epitope of the phosphosite-specific antibodies are marked (-P) . . . […] (C) Blots were subsequently stripped and reprobed with anti-HA antibody to confirm equal loading of the gels. Blots shown are representative of three independent experiments. The positions of molecular mass markers are indicated on the left (in kDa).
as §2

SSTR3 [7] = biological target: T2, SSTR3; assay: GIRK-based fluorescence membrane potential assay, HEK293-GIRK2-GFP-HA-hSST3
Excerpt: The concentrations used are indicated. […] Data points represent mean±S.E.M.
(§3) Therefore, G protein-signaling mediated by SSTR agonists was studied using a GIRK-based fluorescence membrane potential assay both in HEK293 cells transfected with hSSTR3, and in AtT20 wild-type as well as hSSTR3-transfected cells.

SSTR5-tGFP = SSTR5-tGFP (Homo sapiens, UniProt P35346); assay: Internalization of SSTR5 in U2OS transfected cells; type: cell-based; parameters: expressed in transfected cells; host or cells: U2OS
Sequence of SSTR5-tGFP (P35346 whole entry): as above
Excerpt: as §1

SSTR2 [8] = biological target: T1, SSTR2; assay: cell-based; parameters: expressed in transfected cells; host or cells: HEK293 co-expressing GIRK2-GFP
Excerpt: as §3

[9] = tested on: Clinically Non-Functioning Pituitary Adenoma; conditions: Pasireotide LAR, NFPA patients; cited from earlier work
[10] = tested on: NFPAs in MENX (homozygous mutant) rats; conditions: female and male rats; cited from earlier work
SSTR5 [11] = biological target: T3, SSTR5
Excerpt: as §3

opioid receptors = assay: single dose binding assays on opioid receptors; conditions: single dose 10^−5 M

Compound	Mean of internalized fluorescence, SSTR3 (SSTR3-tGFP; 1 μM)	Mean of internalized fluorescence, SSTR3 (SSTR3-tGFP; 10 μM)	phosphorylation of SSTR2 (pS341/pS343, pT353/T354, pT356/T359) (SSTR2 [1])	Mean of internalized fluorescence, SSTR2 (SSTR2-tGFP; 1 μM)	Mean of internalized fluorescence, SSTR2 (SSTR2-tGFP; 10 μM)	spheroid morphology at the highest concentration (NT-3 cell line spheroids)	Compound activity (EC50 nM), GIRK membrane potential assay [4]	also measured
C[C@@H](O)[C@@H]1NC(=O)[C@H](CCCCN)NC(=O)[C@@H](Cc2c[nH]c3ccccc23)NC(=O)[C@H](Cc2ccccc2)NC(=O)[C@@H](NC(=O)[C@H](N)Cc2ccccc2)CSSC[C@@H](C(=O)N[C@H](CO)[C@@H](C)O)NC1=O [Octreotide]	43.4 AU	55.2 AU	full phosphorylation of SSTR2	74.1 AU	81.0 AU	still maintain their morphology	–	rank as SSTR2-tGFP internalization inducer (SSTR2-tGFP): most potent internalization inducer
Pasireotide (peptide)	–	–	–	–	–	–	60 nM	Compound activity (EC50 nM), GIRK membrane potential assay [2]: 16.5 nM; Compound activity (EC50 nM), GIRK membrane potential assay [3]: 63 nM
NCCCC[C@@H]1NC(=O)[C@@H](Cc2c[nH]c3ccccc23)NC(=O)[C@H](c2ccccc2)NC(=O)[C@@H]2C[C@@H](OC(=O)NCCN)CN2C(=O)[C@H](Cc2ccccc2)NC(=O)[C@H](Cc2ccc(OCc3ccccc3)cc2)NC1=O [Pasireotide, reference compound] (cyclo([Hyp]([CO-Ethylenediamine])[Phg][dW]KY(Bn)F))	41.6 AU	46.3 AU	selective phosphorylation of S341/S343	49.2 AU	50.5 AU	still maintain their morphology	–	phosphorylation of SSTR3 (pS337/pT341, pT348) (SSTR3 [5]): weak effect; phosphorylation of SSTR5 (pT333) (SSTR5 [6]): more potent than ITF2984 and octreotide; EC50 (SSTR3 [7]): 63 ± 7.5 nM; Mean of internalized fluorescence, SSTR5 (SSTR5-tGFP; 1 μM): 40.5 AU; Mean of internalized fluorescence, SSTR5 (SSTR5-tGFP; 10 μM): 43.9 AU; EC50 (SSTR2 [8]): 60 ± 16.3 nM; patients reaching a tumor size reduction at least 20% [9]: 16.7%; antitumor activity in the MENX model (published report) [10]: higher antitumor activity than Octreotide; EC50 (SSTR5 [11]): 16.5 ± 2.5 nM; replacement of agonists (opioid receptors): fully replace agonists
Octreotide (peptide)	–	–	–	–	–	–	4 nM	–

— patent US20250057913A1, “USE OF SOMATOSTATIN AGONIST IN THE TREATMENT OF SSTR3 EXPRESSING TUMORS” (ITALFARMACO SPA, priority 2021, published 2025)
